Assay results as given in patent US8648058B2, “Diazeniumdiolate cyclopentyl derivatives” (Merck Sharp & Dohme Corp., priority 2010, dated 2014).

System: Male beagle dogs
Assay: canine telemetry protocol for blood pressure reduction efficacy
Assay type: in vivo
Settings: 3 mg/kg dose, oral gavage, telemetered male beagle dogs; for ΔPP (mm Hg) 1-6 h / ΔPP (mm Hg) 6-12 h / ΔPP (mm Hg) 12-18 h: change from baseline in pulse pressure; for ΔSBP (mm Hg) 1-6 h / ΔSBP (mm Hg) 6-12 h / ΔSBP (mm Hg) 12-18 h: change from baseline in systolic blood pressure
Protocol: Compounds of the invention were evaluated for blood pressure reduction efficacy using the following canine telemetry protocol described below.
Male beagle dogs (approximately 1-3 years old) with a body weight of between 10 and 16 kg were surgically implanted with DSI radiotelemetry devices (model: TL11M2-D70-PCT). Briefly, under an inhalant anesthesia, isoflurane/oxygen mixture (1-3.5%/to effect), the body of the telemetry device was positioned and secured intra-abdominally. Subsequently, the arterial catheter of the telemetry device was passed subcutaneously to the inguinal area and introduced into the femoral artery and advanced to the level of the descending aorta. The catheter was secured with 2-0 silk ligatures. The muscle and underlying fascia was closed over the catheter using absorbable suture and the skin was closed using non-absorbable suture. The animals were allowed a minimum recovery period of 2 weeks between surgery and the evaluation of test compounds.
Compound evaluation consisted of a 3 day paradigm at a 3 mg/kg dose. On the first day, no compounds were administered during a 24 hour period of baseline data collection. Blood pressure and heart rate data were collected continuously for one minute periods at 10 minute intervals. On the days of compound administration half the animals received test article with the other half receiving the vehicle used for compound formulation. All test materials were administered by oral gavage in a volume of 1 mL/kg. Data are expressed either as raw values (mm Hg or beats per minute) or as the change from baseline (average value for about 12 hours in low activity period prior to dosing). Change is SBP (systolic blood pressure) and PP (pulse pressure) over time is shown below: […]

SMILES: CCCN(/[N+]([O-])=N/O[C@@H]1CC[C@@H](C(=O)O)C1)C(C)(C)C [Example 7, (1R,3R)-3-({[(1Z)-2-tert-butyl-2-propyl-1-oxido-1λ^5-diazan-1-ylidene]amino}oxy)cyclopentanecarboxylic acid]
- ΔPP (mm Hg) 1-6 h: −4 mm Hg
- ΔPP (mm Hg) 6-12 h: −9 mm Hg
- ΔPP (mm Hg) 12-18 h: −8 mm Hg
- ΔSBP (mm Hg) 1-6 h: −9 mm Hg
- ΔSBP (mm Hg) 6-12 h: −11 mm Hg
- ΔSBP (mm Hg) 12-18 h: −10 mm Hg

SMILES: CCN(/[N+]([O-])=N/O[C@@H]1CC[C@H](C(=O)O)C1)C(C)(C)C [Example 18, (1S,3R)-3-({[(1Z)-2-tert-butyl-2-ethyl-1-oxido-1λ^5-diazan-1-ylidene]amino}oxy)cyclopentanecarboxylic acid]
- ΔPP (mm Hg) 1-6 h: −14 mm Hg
- ΔPP (mm Hg) 6-12 h: −10 mm Hg
- ΔPP (mm Hg) 12-18 h: −6 mm Hg
- ΔSBP (mm Hg) 1-6 h: −18 mm Hg
- ΔSBP (mm Hg) 6-12 h: −10 mm Hg
- ΔSBP (mm Hg) 12-18 h: −4 mm Hg

SMILES: CCN(/[N+]([O-])=N/O[C@@H]1CC[C@@H](C(=O)O)C1)C(C)(C)C [Example 1, (1R,3R)-3-({[(1Z)-2-tert-butyl-2-ethyl-1-oxido-1λ^5-diazan-1-ylidene]amino}oxy)cyclopentanecarboxylic acid]
- ΔPP (mm Hg) 1-6 h: −7 mm Hg
- ΔPP (mm Hg) 6-12 h: −7 mm Hg
- ΔPP (mm Hg) 12-18 h: −5 mm Hg
- ΔSBP (mm Hg) 1-6 h: −12 mm Hg
- ΔSBP (mm Hg) 6-12 h: −9 mm Hg
- ΔSBP (mm Hg) 12-18 h: −7 mm Hg
